Literature values in PMC10178506, “Chemical and Biological Evaluation of Novel 1H-Chromeno[3,2-c]pyridine Derivatives as MAO Inhibitors Endowed with Potential Anticancer Activity” (International Journal of Molecular Sciences, 2023).

Legend:
AChE = test system: AChE; parameters: method as in PMID 32716595; conditions: read-out: AChE IC50 (previous work); cited from earlier work
MAO B = test system: MAO B; parameters: method as in PMID 32716595; conditions: read-out: MAO B IC50 (previous work); cited from earlier work

SMILES: CC(C)N1CCc2oc3ccc(Br)cc3c(=O)c2C1
- IC50 (AChE): 3220 nM
- IC50 (MAO B): 2230 nM

SMILES: CCOc1cccc2c(=O)c3c(oc12)CCN(Cc1ccccc1)C3
- IC50 (MAO B): 890 nM
